Eleven molecules from US5589477A, “Pyrimidine derivatives and drugs” (Nippon Shinyaku Company, Limited, priority 1990, dated 1996) can be followed below.

Counter-ions that a name gives are not always drawn.

One data set has as its system mice. As to the kind of experiment: Acute toxicity (mice, p.o.). The data set is classed as in vivo. To be noted: 1000 mg/kg p.o., male mice, 72 hours. How it is done:
Male mice, 6 weeks of age (4 mice/group) were deprived of foods overnight. Test drugs suspended in 0.5% methyl cellulose solution were administered orally to the mice. Whether the animals were dead or not was observed 72 hours after the treatment of the drugs.
Turning to `COc1ccc(-c2nc(C)cc(OCCN3CCN(C(c4ccccc4)c4ccccc4)CC3)n2)cc1` [Example 3, 4-[2-(4-diphenylmethylpiperazino)ethoxy]-2-(4-methoxyphenyl)-6-methylpyrimidine], the “Lethality (Number of dead animals/Number of animals used)” value is on record as 0/4. Turning to `COc1ccc(-c2nc(C)cc(N3CCN(C(c4ccccc4)c4ccccc4)CC3)n2)cc1` [Example 4, 4-(4-diphenylmethylpiperazino)-2-(4-methoxyphenyl)-6-methylpyrimidine], the “Lethality (Number of dead animals/Number of animals used)” value is 0/4.

Take `Cc1cc(OCCN2CCN(c3ccccc3)CC2)nc(-c2ccccc2)n1.O=C(O)/C=C\C(=O)O` [Example 11, 4-Methyl-2-phenyl-6-[2-(4-phenylpiperazino)ethoxy] pyrimidine maleate]: the “Lethality (Number of dead animals/Number of animals used)” value is listed as 0/4. As for `Cc1cc(OCCN2CCN(C(c3ccccc3)c3ccccc3)CC2)nc(-c2ccccc2)n1` [Example 13, 4-[2-(4-diphenylmethylpiperazino)ethoxy]-6-methyl-2-phenylpyrimidine], the “Lethality (Number of dead animals/Number of animals used)” value is listed as 0/4. On to `COc1ccc(-c2nc(C)cc(OCCN3CCN(c4ccccc4)CC3)n2)cc1` [Example 21, 2-(4-methoxyphenyl)-4-methyl-6-[2-(4-phenylpiperazino)ethoxy]pyrimidine], for which the “Lethality (Number of dead animals/Number of animals used)” value was 0/4. `Cc1cc(N2CCN(C(c3ccccc3)c3ccccc3)CC2)nc(-c2ccccc2)n1` [Example 35, 4-(4-diphenylmethylpiperazino)-6-methyl-2-phenylpyrimidine]: the “Lethality (Number of dead animals/Number of animals used)” value is recorded as 0/4.

In the case of `Cc1cc(O[C@H]2CN3CCC2CC3)nc(-c2ccc(Cl)cc2)n1` [Example 44, (R)-(-)-4-(1-azabicyclo[2,2,2]octo-3-yloxy)-2-(4-chlorophenyl) 6-methylpyrimidine maleate], the “Lethality (Number of dead animals/Number of animals used)” value is 0/4. As to `Cc1cc(O[C@H]2CN3CCC2CC3)nc(-c2ccc(O)cc2)n1` [Example 58, (R)-(-)-4-(1-azabicyclo[2,2,2]octo-3-yloxy)-2-(4-hydroxyphenyl) 6-methylpyrimidine maleate], the “Lethality (Number of dead animals/Number of animals used)” value is on record as 0/4.

For the next data set, the target named is T1, muscarinic M1 receptors (Rattus norvegicus, UniProt P08482).
T1 construct: receptor membrane preparations from rat brain; from tissue; host or cells: rat brain membranes
T1 sequence (P08482 1-460): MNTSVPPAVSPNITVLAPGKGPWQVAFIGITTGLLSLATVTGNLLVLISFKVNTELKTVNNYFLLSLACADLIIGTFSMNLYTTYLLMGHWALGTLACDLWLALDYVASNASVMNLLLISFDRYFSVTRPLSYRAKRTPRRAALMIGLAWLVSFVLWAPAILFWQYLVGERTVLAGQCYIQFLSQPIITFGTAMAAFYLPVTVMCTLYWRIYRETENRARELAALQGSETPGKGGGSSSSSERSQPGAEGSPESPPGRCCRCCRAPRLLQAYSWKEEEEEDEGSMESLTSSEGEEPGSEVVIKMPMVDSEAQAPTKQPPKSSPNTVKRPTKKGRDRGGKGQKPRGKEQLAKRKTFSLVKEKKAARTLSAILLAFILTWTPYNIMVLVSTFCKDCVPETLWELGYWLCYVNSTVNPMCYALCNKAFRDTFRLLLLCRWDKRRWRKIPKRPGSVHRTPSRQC
As to the kind of experiment: Binding assay for muscarinic M1 receptors ([^3 H]pirenzepine displacement, rat brain membranes). To be noted: 1 nM [^3 H]pirenzepine, pH 7.4, 25° C., 60 minutes. As for the experimental part:
(3) Effect on muscarinic M1 receptors
Binding assay for muscarinic M1 receptors was carried out according to the method of Watson and Yamamura [Life Sci. 3001-3011(1983)]. Namely, the receptor membrane preparations from rat brain were incubated with 1 nM [^3 H]pirenzepine in 10 mM Na/K phosphate buffer solution (pH 7.4) at 25° C. for 60 minutes. 1 μM of atropine was used as a displacer.
`Cc1cc(O[C@H]2CN3CCC2CC3)nc(-c2ccc(F)cc2)n1` [Example 27, (R)-(-)-4-(1-azabicyclo[2,2,2]octo-3-yloxy)-2-(4-fluorophenyl) 6-methylpyrimidine maleate] displayed an IC50 of 170 nM. On the same count and under the same terms, the figure for `Cc1cc(O[C@H]2CN3CCC2CC3)nc(-c2ccc(Cl)cc2)n1` [Example 44, (R)-(-)-4-(1-azabicyclo[2,2,2]octo-3-yloxy)-2-(4-chlorophenyl) 6-methylpyrimidine maleate] is 240 nM; for `Cc1cc(O[C@H]2CN3CCC2CC3)nc(-c2ccc(O)cc2)n1` [Example 58, (R)-(-)-4-(1-azabicyclo[2,2,2]octo-3-yloxy)-2-(4-hydroxyphenyl) 6-methylpyrimidine maleate] it is 810 nM. `COc1ccc(-c2nc(O[C@H]3CN4CCC3CC4)cc(C(C)(C)C)n2)cc1` [Example 60, (R)-(-)-4-(1-azabicyclo[2,2,2]octo-3-yloxy)-6-tert-butyl-2-(4-methoxyphenyl)pyrimidine maleate] registered an IC50 of 3100 nM. Consider `Fc1ccc(-c2nc(O[C@H]3CN4CCC3CC4)cc(C(F)(F)F)n2)cc1` [Example 63, (R)-(-)-4-(1-azabicyclo[2,2,2]octo-3-yloxy)-2-(4-fluorophenyl) 6-trifluoromethylpyrimidine maleate], for which the IC50 was 600 nM.
